# Experimental data taken from US20170281541A1, “LIPOSOME-BASED MUCUS-PENETRATING PARTICLES FOR MUCOSAL DELIVERY” (The Johns Hopkins University, priority 2014, published 2017).
# Experiment: CEST imaging in vivo (diaCEST MRI) after intravaginal administration
# Design: species or system mice
# Protocol: Naturally cycling, estrus phase female mice were used for the intravaginal distribution study and the in vivo CEST imaging studies. In brief, female CF-1 mice (6-8 weeks old, Harlan, Indianapolis, Ind.) were housed in a reversed light cycle facility (12-hour light/12-hour dark). Mice were selected for external estrus appearance, which was confirmed upon dissection. All animal studies were performed in accordance to protocols approved by the Institutional Animal Care and Use Committee (IACUC) at the Johns Hopkins University.
# Mice were anesthetized using isoflurane and positioned in a 11.7 T horizontal bore Bruker Biospec scanner (Bruker Biosciences, Billerica, Mass.). Twenty microliters of BA-loaded 7 mol %-PEG liposome suspension (4 mg BA/mL) or free BA solution at a equivalent dose were administered intravaginally via a customized catheter. Imaging was performed before and at 30 min-intervals after the intravaginal administration up to 1.5 h. Axial images were acquired at ˜2 mm above the tip of the catheter that was inserted ˜5 mm deep from the vaginal opening. […]
# MR images were processed using custom-written Matlab scripts with the CEST contrast quantified by calculating the asymmetry in the magnetization transfer ratio (MTRasym) using MTRasym=(S−Δω−S+Δω)/S0 for NH protons at the frequency offset of BA from water (Δω)=5 ppm. […]
compound,measurement,setting,value
"O=C1CC(=O)NC(=O)N1 [unencapsulated BA, barbituric acid]",vaginal retention time / duration of CEST contrast,"intravaginal, mice, imaging up to 1.5 h",~30 min
same,vaginal retention by diaCEST MRI,liposomal vs unencapsulated BA,much shorter vaginal retention time
